# Experimental data taken from PMC12951568, “Identifying Structural Factors Governing the Photodynamic Activity of Phthalocyanines” (Journal of Medicinal Chemistry, 2026).
# Like-named read-outs stand apart in the source and are kept apart here.
# How the values were obtained:
# [1] = Absorption and fluorescence emission spectra in DMF; assay type: physicochemical; settings: in DMF
# Description: An absorption spectrum of 2.475 mL of solvent (water, DMF, or PBS) was taken (i.e., absorption spectrum of baseline); then, 25 μL of stock solution was added to reach the final concentration of 1 μM in the cuvette, and the absorption and emission spectra were taken. Baseline of the solvent was subtracted from the obtained absorption spectrum to get the final absorption spectrum of the sample.
# [2] = Fluorescence quantum yield, comparative method; assay type: physicochemical; settings: in DMF; ZnPc as reference
# Description: The fluorescence quantum yields (ΦF) were determined by a comparative method with ZnPc as the reference (ΦF = 0.32 in THF). The ΦF values were calculated using the following formula: ϕFS=ϕFR(F^S/F^R)(1−10^−A^R/1−10^−A^S)(η^S/η^R)^2 where F is the integrated area under the emission spectrum and A is the absorbance at the excitation wavelength. Superscripts R and S indicate the reference and sample, respectively. η stands for the refractive index of the solvent. Absorption in the Q-band was kept below 0.05 to eliminate the inner filter effect. Excitation wavelengths were the same as those used for emission spectra (see above). The emission wavelengths were set to their emission maxima to avoid exceeding the detector limit with stimated error ± 15%.
# [3] = Fluorescence lifetime in DMF; assay type: physicochemical
# Source text: 1 Photophysical Data of Investigated Derivatives in DMF ^a | column: τF1/ns; τF2/ns
# [4] = Quantum yield of singlet oxygen production, comparative method with DPBF scavenger; assay type: physicochemical; settings: in DMF, ZnPc as reference
# Description: Eight μL of the 100 μM stock solution of the dye in DMF (or DMF + water or water; see above) was added. A xenon lamp (100 W, ozone free XE DC short arc lamp, New port) was used to irradiate the sample while stirring. The incident light was filtered through a water filter (6 cm) and cut off filter OG530 eliminating heat and light under 523 nm, respectively. […] The decrease of DPBF in solution with irradiation time was monitored at 415 nm. The values of ΦΔ of the dyes were calculated by the following equation: φΔS=φΔ[…] is the slope of the plot of the dependence of ln([…] 0 and A t being the absorbances of the DPBF at 415 nm before irradiation and after irradiation time t, respectively. I aT is the total amount of light absorbed by the dye sample. Superscripts R and S indicate the reference and sample, respectively. I aT is calculated as a sum of intensities of the absorbed light I a at wavelengths from 523 to 850 nm (step 0.5 nm). Light under 523 nm is completely filtered by an OG530 filter, and light above 850 nm is not absorbed by the studied dye sample. I a at a given wavelength is calculated using Beer-Lambert'[…]) where I 0 is transmittance of the filter at the given wavelength and A is the absorbance of the dye at this wavelength. All experiments were performed three times, and the data presented is the mean value of the three obtained results with estimated error ± 10%.
# [5] = Log P, partition between n-octanol and PBS; assay type: physicochemical; settings: partition coefficient between 1-octanol and PBS
# Description: 400 μL portion of n-octanol and 400 μL of PBS buffer were mixed in a plastic Eppendorf vial. Then, 20 μL of the 100 μM stock solution of the sample (see above) was added to this mixture, vortexed for 5 min at rt, and then centrifuged for 10 min (10 000 rpm, rt). 50 μL of each of these layers was taken into 2.5 mL of DMF in a quartz cuvette, and their emission spectra (excitation wavelengths in Table ) were recorded. The log P value was then computed using the area under the curve of the emission spectra of n-octanol (F oct) and PBS buffer (F PBS) layers as follows: logP=log(Foct/FPBS) Triplicate measurements were performed, and the data reported are the mean of the obtained results.
# [6] = molecular target: bovine serum albumin (BSA) (Bos taurus, UniProt P02769); experiment: Interaction with bovine serum albumin (absorption and emission spectra in PBS); assay type: binding; settings: 1 μM Pc in PBS, BSA 17.5, 35 and 100 μM
# Chain of bovine serum albumin (BSA) (P02769 25-607): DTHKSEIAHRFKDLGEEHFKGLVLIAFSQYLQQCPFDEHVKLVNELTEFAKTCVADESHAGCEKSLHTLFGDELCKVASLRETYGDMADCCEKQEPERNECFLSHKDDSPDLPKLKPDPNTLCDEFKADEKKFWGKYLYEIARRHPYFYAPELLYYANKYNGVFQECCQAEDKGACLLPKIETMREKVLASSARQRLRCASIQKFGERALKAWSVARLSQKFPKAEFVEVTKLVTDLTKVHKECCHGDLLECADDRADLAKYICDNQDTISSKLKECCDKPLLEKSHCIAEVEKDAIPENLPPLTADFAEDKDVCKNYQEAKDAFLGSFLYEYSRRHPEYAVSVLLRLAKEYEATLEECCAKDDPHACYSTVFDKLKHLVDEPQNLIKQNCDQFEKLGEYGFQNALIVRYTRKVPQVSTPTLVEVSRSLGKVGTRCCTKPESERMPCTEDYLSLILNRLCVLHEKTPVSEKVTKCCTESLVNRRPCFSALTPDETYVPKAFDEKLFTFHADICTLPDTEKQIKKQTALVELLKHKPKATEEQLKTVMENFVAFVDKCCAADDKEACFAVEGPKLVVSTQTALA
# [7] = system: HeLa (human cervical carcinoma); experiment: Photodynamic activity (phototoxicity, neutral red uptake) on HeLa; assay type: cell-based
# Description: (§1) Detailed in vitro studies involving subcellular localization and determination of the EC50 in three different cell lines (human cervical carcinoma–HeLa, human breast adenocarcinoma–MCF-7, and human skin melanoma–SK-MEL-28) were performed. A broadband light source (ozone-free 450 W Xe-lamp, Newport) equipped with the long-pass filter Schott OG570 was used (12.4 mW/cm^2, 15 min, 11.2 J/cm^2).
# (§2) For the cytotoxicity experiments (phototoxicity), cells were seeded at 100 μL per well into 96-well plates (TPP, Switzerland) at a density of 7.5 × 10^3 (HeLa) or 1.0 × 10^4 (MCF-7 and SK-MEL-28) cells per well. Cells were left to grow for 24 h (until they reached confluency) in a controlled environment of a CO2 incubator (37 °C, 5% CO2 atmosphere, constant high humidity). Subsequently, studied compounds were added in a wide concentration range and incubated with the cells for 12 h. Cells were washed; fresh cell culture medium was added, and the cells were irradiated using a 450 W Xe lamp (Newport, USA). The lamp was equipped with a long pass filter (Newport OG570) and an 8 cm water filter (λ > 570 nm, 12.4 mW/cm^2, 15 min, 11.2 J/cm^2). Cellular viability was assessed after an additional 24 h by the neutral red (NR; Sigma, Merck, USA) uptake assay. At least three independent experiments, each in triplicate, were performed. The soluble NR was measured at λ = 540 nm using a Tecan Infinite 200 M plate reader (Tecan, Austria). The viability of each experimental group was expressed as the percentage of the untreated cells (100% viability) after subtraction of the signal from cells treated with a lethal dose of hydrogen peroxide (0% viability). […] EC50 values were calculated, and graphs were created by using GraphPad Prism 10.3.1 (Graph Pad software, USA).
# [8] = system: SK-MEL-28 (human skin melanoma); experiment: Photodynamic activity (phototoxicity, neutral red uptake) on SK-MEL-28; assay type: cell-based; settings: 12 h incubation, Xe-lamp 15 min, λ > 570 nm, 11.2 J/cm^2; mean ± SD; t.w. = this work
# Description: as §1, §2
# [9] = system: HeLa (human cervical carcinoma); settings: 12 h incubation, Xe-lamp 15 min, λ > 570 nm, 11.2 J/cm^2; mean ± SD; determined previously under the same conditions at the same workplace and published; ref number not given; read-out: EC50 (nM) HeLa; cited from earlier work
# [10] = system: MCF-7 (human breast adenocarcinoma); parameters: method as in number not printed in Table 2; settings: 12 h incubation, Xe-lamp 15 min, λ > 570 nm, 11.2 J/cm^2; mean ± SD; determined previously under the same conditions at the same workplace and published; ref number not given; cited from earlier work
# [11] = system: MCF-7 (human breast adenocarcinoma); experiment: Photodynamic activity (phototoxicity, neutral red uptake) on MCF-7; assay type: cell-based; settings: 12 h incubation, Xe-lamp 15 min, λ > 570 nm, 11.2 J/cm^2; mean ± SD; t.w. = this work
# Description: as §1, §2
Structure (SMILES),"λF, fluorescence emission maximum [1] [nm]","ΦF, fluorescence quantum yield [2]","τF1, fluorescence lifetime (relative amplitude in brackets) [3]","τF2, fluorescence lifetime (relative amplitude in brackets) [3]","ΦΔ, quantum yield of singlet oxygen production [4]",Log P [5],Interaction with BSA: disaggregation/monomerization and changes in absorption and fluorescence emission spectra [6],"fold higher photodynamic activity vs symmetrical hydrophilic counterparts ([7]; HeLa, unsymmetrical anionic A1Zn, A2Zn vs A3Zn, A4Zn)",EC50 [8] [nM],EC50 [9] [nM],EC50 [10] [nM],"ε, extinction coefficient [1]","λA, absorption maximum in the Q-band [1] [nm]","EC50 ([7]; 12 h incubation, Xe-lamp 15 min, λ > 570 nm, 11.2 J/cm^2, mean ± SD, t.w. = this work) [nM]",EC50 [11] [nM]
O=C([O-])c1cc(Oc2cc3c(cc2Oc2cc(C(=O)[O-])cc(C(=O)[O-])c2)C2=Nc4c5ccccc5c5[n]4[Zn][n]4c(c6ccccc6c4=NC3=N2)=NC2=NC(=N5)c3ccccc32)cc(C(=O)[O-])c1.[Na+].[Na+].[Na+].[Na+] [A1Zn],682,0.035,0.44 (15%) ns,2.51 (85%) ns,0.26,–2.70,complete,~21,530 ± 30,290 ± 78,453 ± 26,–,–,–,–
CSc1cc2c(cc1SC)C1=Nc3c4cc(SC)c(SC)cc4c4[n]3[Zn][n]3c(c5cc(SC)c(SC)cc5c3=NC2=N1)=NC1=NC(=N4)c2cc(Oc3c(Cn4cc[n+](C)c4)cc(C)cc3Cn3cc[n+](C)c3)c(Oc3c(Cn4cc[n+](C)c4)cc(C)cc3Cn3cc[n+](C)c3)cc21.[I-].[I-].[I-].[I-] [C4Zn],709,0.21,–,–,0.44,0.62,–,–,108 ± 24,79 ± 20,61 ± 9,106 360 M^–1cm^–1,697,–,–
Cc1cc(Cn2cc[n+](C)c2)c(Oc2c3c(c(C)c(C)[n+]2C)C2=NC3=Nc3c4cc(SC(C)(C)C)c(SC(C)(C)C)cc4c4[n]3[Zn][n]3c(c5cc(SC(C)(C)C)c(SC(C)(C)C)cc5c3=N2)=NC2=NC(=N4)c3cc(SC(C)(C)C)c(SC(C)(C)C)cc32)c(Cn2cc[n+](C)c2)c1.[I-].[I-].[I-] [C2Zn],718,0.30,1.67 ns,–,0.70,1.38,–,–,62 ± 11,105 ± 34,65 ± 8,177 880 M^–1cm^–1,708,–,–
Cc1cc(Cn2c[n+](C)cn2)c(Oc2cc3c(cc2Oc2c(Cn4c[n+](C)cn4)cc(C)cc2Cn2c[n+](C)cn2)C2=Nc4c5cc(Oc6c(Cn7c[n+](C)cn7)cc(C)cc6Cn6c[n+](C)cn6)c(Oc6c(Cn7c[n+](C)cn7)cc(C)cc6Cn6c[n+](C)cn6)cc5c5[n]4[Zn][n]4c(c6cc(Oc7c(Cn8c[n+](C)cn8)cc(C)cc7Cn7c[n+](C)cn7)c(Oc7c(Cn8c[n+](C)cn8)cc(C)cc7Cn7c[n+](C)cn7)cc6c4=NC4=NC(=N5)c5cc(Oc6c(Cn7c[n+](C)cn7)cc(C)cc6Cn6c[n+](C)cn6)c(Oc6c(Cn7c[n+](C)cn7)cc(C)cc6Cn6c[n+](C)cn6)cc54)=NC3=N2)c(Cn2c[n+](C)cn2)c1.[I-].[I-].[I-].[I-].[I-].[I-].[I-].[I-].[I-].[I-].[I-].[I-].[I-].[I-].[I-].[I-] [C13Zn],687,0.20,0.60 (4%) ns,2.27 (96%) ns,0.37,–3.47,–,–,56 ± 6,12 ± 4,5.3 ± 0.8,236 490 M^–1cm^–1,679,–,–
NCCc1ccc(Oc2cccc3c2C2=NC3=Nc3c4ccccc4c4[n]3[Zn][n]3c(c5ccccc5c3=N2)=NC2=NC(=N4)c3ccccc32)cc1 [C15Zn],684,0.20,1.23 (7%) ns,2.96 (93%) ns,0.53,3.32,Partial monomerization,–,25 ± 6,–,–,136 590 M^–1cm^–1,675,74 ± 22,50 ± 8
